Measured values reported in patent US8367401B2, “Replication competent hepatitis C virus and methods of use” (Board of Regents, The University of Texas System, priority 1999, dated 2013).

What was measured:
En5-3 cells = assay: SEAP expression from En5-3 cells without replicon; format: cell-based; conditions: interferon treatment
Description: FIG. 22. Suppression of HCV replicon amplification by interferon-α2b. (A) SEAP activity secreted from cells supporting replication of Btat2ANeo(SI) over successive 24 hr intervals following addition of interferon to the medium. (B) SEAP secretion from Ntat2ANeo(RG) cells. Interferon concentrations were: (*) 100 units/ml; (X) 10 units/ml; (▴) 1 unit/ml; (▪) no interferon. SEAP expression from En5-3 cells without interferon treatment was also shown (♦). SEAP expression from En5-3 cells was not affected by interferon treatment.
(§1) Alkaline phosphatase assay. […] The luminescent signal was read using a TD-20/20 Luminometer (Turner Designs, Inc.). In most time course experiments, the culture medium was replaced every 24 hrs. Thus, the SEAP activity measured in these fluids reflected the daily production of SEAP by the cells.

[1] = test system: Ntat2ANeo(RG) replicon (HCV-N) in En5-3 cells; assay: Interferon suppression of SEAP secretion, Ntat2ANeo(RG) replicon cell line; format: cell-based, hepatitis C virus
Procedure: as §1
(§2) Interferon treatment of cell cultures. Selected replicon-bearing cell lines were seeded into 12 well plates. The media was replaced 24 hrs later with fresh, G418 free media containing various concentrations of recombinant interferon-α2B ranging from 0 to 100 units/ml. The medium was subsequently completely removed every 24 hrs, the cells washed, and refed with fresh interferon-containing media. SEAP activity was measured in the media removed from the cells as described above.
(§3) Interferon suppression of HCV RNA replication. […] Recently seeded cell cultures were fed with media containing various concentrations of recombinant interferon-α2B ranging from 0 to 100 units/ml. The medium was subsequently removed completely at 24 hr intervals, and the cells were washed thoroughly and refed with fresh interferon-containing media. […] The decline in intracellular RNA preceded the decreases in SEAP secretion by approximately 24 hrs, most likely reflecting the kinetic delay in tat signaling of SEAP secretion.

Et2AN cell line = assay: SEAP secretion by Et2AN control cell line (tat2ANeo under EMCV IRES, no replicon); format: cell-based
Description: as §1
This permits serial measurements of the kinetics of RNA amplification in single cultures of cells (FIG. 21). One potential drawback of this system is that suppression of SEAP activity by candidate antiviral compounds could result from inhibition of the activity of either the 2A protease or tat, or even (as with other published dicistronic HCV replicons) the EMCV IRES. To address this issue, we established a stably transformed cell line that constitutively expresses the tat2ANeo polyprotein under the translational control of the EMCV IRES. This cell line (Et2AN) was established by transfection of pEt2AN DNA (FIG. 16) into En5-3 cells, followed by selection with G418.

[2] = test system: Btat2ANeo(SI) replicon (Con1 HCV) in En5-3 cells; assay: Interferon suppression of SEAP secretion, Btat2ANeo(SI) replicon cell line; format: cell-based, hepatitis C virus
Procedure: as §1, §2, §3

[3] = highest concentration of interferon tested, 100 units/ml
[4] = interferon 0 to 100 units/ml, media replaced at 24 hr intervals, stable G418 resistant cell clone

For interferon-α2b, the SEAP expression (En5-3 cells) was “not affected”, the cellular cytotoxicity ([1]; 100 units/ml) was “absence of demonstrable cellular cytotoxicity” and the “SEAP expression over time” value [1, 3] was “SEAP expression declined over time”. For the same substance, the SEAP secretion [1, 4] was “dose-dependent inhibition of SEAP secretion”, the “suppression of the secretion of SEAP” value (Et2AN cell line; comparable concentrations of interferon) was “no suppression” and the nonspecific toxicity (Et2AN cell line; concentrations of interferon tested) was “absence of nonspecific toxicity”. For the same substance, the cellular cytotoxicity ([2]; 100 units/ml) was “absence of demonstrable cellular cytotoxicity”, the “SEAP expression over time” value [2, 3] was “SEAP expression declined over time” and the SEAP secretion [2, 4] was “dose-dependent inhibition of SEAP secretion”.
